{"source": "patent US20070196421A1", "about": "“Soft tissue implants and drug combination compositions, and use thereof” (priority 2005, published 2007)", "key": {"mast cells": {"tested_on": "mast cells", "details": "cited from earlier work"}, "eosinophil activation": {"tested_on": "eosinophil activation", "details": "cited from earlier work"}, "[1]": {"details": "in vivo; cited from earlier work"}, "glucocorticoid receptor": {"tested_on": "glucocorticoid receptor", "assay": "glucocorticoid receptor trafficking (mechanism study)", "type": "cell-based"}, "[2]": {"tested_on": "GRE reporter plasmid in T cells", "assay": "transactivation of a transfected GRE reporter plasmid in T cells", "type": "cell-based"}, "NFAT": {"tested_on": "NFAT", "assay": "NFAT activation, translocation and transactivation", "type": "cell-based"}, "NFkB": {"tested_on": "NFkB", "assay": "NFkB activation", "type": "cell-based"}, "AP1": {"tested_on": "AP1", "assay": "AP1 activation", "type": "cell-based"}, "p38": {"tested_on": "p38", "assay": "p38 activation", "type": "cell-based"}, "JNK": {"tested_on": "JNK", "assay": "JNK activation", "type": "cell-based"}, "ERK": {"tested_on": "ERK", "assay": "ERK activation", "type": "cell-based"}, "[3]": {"tested_on": "LPS-induced TNF-α production", "assay": "acute in vivo model of inflammation (LPS-induced TNF-α release)", "details": "agent alone (prednisolone at reduced dose)"}, "joint swelling": {"tested_on": "joint swelling", "assay": "chronic in vivo model of inflammation / chronic arthritis model", "details": "agent alone (prednisolone at reduced dose)"}, "[4]": {"tested_on": "carrageenan-induced paw edema", "assay": "Rat carrageenan-induced paw edema model: paw swelling", "type": "in vivo", "details": "2.26 mg/kg, local injection in paw at T-1 hr, Tmax = 6 hrs", "experimental": "(§1) A dose-range finding study was performed to determine the anti-inflammatory activity of various ratios of methyl prednisolone acetate and amoxapine in a rat carrageenan-induced paw edema model. […] The molar ratio of methyl prednisolone acetate to amoxapine ranged from 1:1 to 1:300, using total doses of methyl prednisolone acetate of 0.01, 0.03 or 0.1 mg/kg.\n(§2) The test agent (a combination of methyl prednisolone acetate and amoxapine), vehicle control, or reference agents (methyl prednisolone acetate, amoxapine, or Depo-Medrol®) were administered in the left hind foot pad of rats. After 60 minutes, paw edema was induced by injection of 100 μl of 1% carrageenan in the same foot pad. The paw volume was measured with a water displacement plethysmometer immediately prior to test agent injection (T−1h), at the time of carrageenan injection (T0h), and at T6h. Animals were euthanized by carbon dioxide inhalation. Paw tissue samples were collected and flash frozen in liquid nitrogen. Samples were assayed for TNF-α by enzyme-linked immunoassay (ELISA)."}, "TNF-α": {"tested_on": "TNF-α", "assay": "Rat carrageenan-induced paw edema model: TNF-α in paw tissue by ELISA", "type": "in vivo", "details": "2.26 mg/kg", "experimental": "as §1, §2"}, "AP-1": {"tested_on": "AP-1", "assay": "IL-1 induced AP-1 binding activity in chondrocyte lysates (FIG. 1C)", "type": "cell-based", "details": "lysates from chondrocytes pretreated with paclitaxel"}, "collagenase": {"tested_on": "collagenase", "assay": "IL-1 induced collagenase RNA levels in chondrocytes (FIG. 1D)", "type": "cell-based", "details": "pretreatment"}, "stromelysin": {"tested_on": "stromelysin", "assay": "IL-1 induced stromelysin RNA levels in chondrocytes (FIG. 1D)", "type": "cell-based", "details": "pretreatment"}, "[5]": {"tested_on": "AP-1 transcriptional activity", "assay": "IL-1 stimulated AP-1 transcriptional activity (AP-1 driven CAT reporter gene) in chondrocytes", "type": "cell-based", "details": "transfected chondrocytes, IL-1 50 ng/ml, 24 hours, paclitaxel 10^−7 to 10^−5 M", "experimental": "Chondrocytes were transfected with constructs containing an AP-1 driven CAT reporter gene, and stimulated with IL-1, IL-1 (50 ng/ml) was added and incubated for 24 hours in the absence and presence of paclitaxel at various concentrations. […] The data noted with an asterisk (*) have significance compared with IL-1-induced CAT activity according to a t-test, P<0.05. The results shown are representative of three independent experiments."}, "[6]": {"tested_on": "AP-1 DNA binding activity", "assay": "IL-1 induced AP-1 DNA binding activity, gel mobility shift assay of chondrocyte extracts", "type": "cell-based", "details": "chondrocyte lysates, pretreated 10^−7 to 10^−5 M for 24 hours, IL-1β 20 ng/ml", "experimental": "Binding activity was assayed with a radiolabeled human AP-1 sequence probe and gel mobility shift assay. Extracts from chondrocytes untreated or treated with various amounts of paclitaxel (10^−7 to 10^−5 M) followed by IL-1β (20 ng/ml) were incubated with excess probe on ice for 30 minutes, followed by non-denaturing gel electrophoresis. The “com” lane contains excess unlabeled AP-1 oligonucleotide. The results shown are representative of three independent experiments."}, "collagenase (MMP-1) mRNA": {"tested_on": "collagenase (MMP-1) mRNA", "assay": "IL-1 induced collagenase (MMP-1) mRNA expression in chondrocytes, Northern blot", "details": "10^−5 M, 24 hours pretreatment, IL-1β 20 ng/ml"}, "stromelysin (MMP-3) mRNA": {"tested_on": "stromelysin (MMP-3) mRNA", "assay": "IL-1 induced stromelysin (MMP-3) mRNA expression in chondrocytes, Northern blot", "details": "10^−5 M, 24 hours pretreatment, IL-1β 20 ng/ml"}, "[7]": {"details": "in vivo; cited from earlier work", "remark": "listed apart in the source"}, "[8]": {"biological_target": "protein tyrosine phosphatase 1B (PTP1B) (Homo sapiens, UniProt P18031)", "sequence (P18031 whole entry)": "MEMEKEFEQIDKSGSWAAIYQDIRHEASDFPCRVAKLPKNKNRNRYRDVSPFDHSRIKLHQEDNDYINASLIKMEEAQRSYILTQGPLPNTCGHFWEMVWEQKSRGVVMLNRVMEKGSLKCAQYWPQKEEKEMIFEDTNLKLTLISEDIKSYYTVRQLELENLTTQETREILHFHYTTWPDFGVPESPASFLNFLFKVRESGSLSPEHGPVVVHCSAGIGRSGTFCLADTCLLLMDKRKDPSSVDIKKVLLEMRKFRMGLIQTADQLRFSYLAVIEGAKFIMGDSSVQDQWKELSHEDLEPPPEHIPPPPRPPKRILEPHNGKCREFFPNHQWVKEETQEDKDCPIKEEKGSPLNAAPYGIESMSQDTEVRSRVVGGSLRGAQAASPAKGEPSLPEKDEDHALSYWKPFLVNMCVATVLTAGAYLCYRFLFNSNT", "details": "cited from earlier work"}, "[9]": {"tested_on": "phosphatases of regenerating liver (PRL)", "details": "cited from earlier work"}, "endo-exonuclease": {"tested_on": "endo-exonuclease", "details": "cited from earlier work"}, "[10]": {"details": "200 mg/day orally; cited from earlier work"}, "[11]": {"details": "water; cited from earlier work"}}}
{"smiles": "CCOC(=O)N1CCC(=C2c3ccc(Cl)cc3CCc3cccnc32)CC1", "note": "[loratadine, Loratadine]", "values": [{"measurement": "inhibition of mast cells", "setting": "mast cells", "result": "inhibits"}, {"measurement": "inhibition of eosinophil activation", "setting": "eosinophil activation", "result": "inhibits"}]}
{"smiles": "CN(C)/N=N/c1[nH]cnc1C(N)=O", "note": "[Dacarbazine, dacarbazine]", "values": [{"measurement": "absorption from the GI tract", "setting": "[1]", "result": "poorly absorbed"}]}
{"smiles": "Clc1ccc2c(c1)C(N1CCNCC1)=Nc1ccccc1O2", "note": "[amoxapine]", "values": [{"measurement": "glucocorticoid receptor trafficking", "setting": "glucocorticoid receptor", "result": "does not promote"}, {"measurement": "potentiation of prednisolone's ability to transactivate a GRE reporter plasmid", "setting": "[2]", "result": "does not potentiate"}, {"measurement": "NFAT activation, translocation and transactivation", "setting": "NFAT", "result": "block"}, {"measurement": "NFkB activation", "setting": "NFkB", "result": "partially inhibits"}, {"measurement": "AP1 activation", "setting": "AP1", "result": "partially inhibits"}, {"measurement": "p38 activation", "setting": "p38", "result": "Inhibition"}, {"measurement": "JNK activation", "setting": "JNK", "result": "Inhibition"}, {"measurement": "ERK activation", "setting": "ERK", "result": "unaffected"}, {"measurement": "effect of the single agents in the acute / LPS model", "setting": "[3]", "result": "modest or no benefit"}, {"measurement": "effect of the single agents in the chronic model", "setting": "joint swelling", "result": "modest or no benefit"}, {"measurement": "Edema ± SEM", "setting": "[4]", "result": "not significantly different from the vehicle treatment"}, {"measurement": "Edema ± SEM", "setting": "[4]; listed as Amoxapine", "result": "38.1 ± 3.3", "unit": "%"}, {"measurement": "TNF-α ± SEM", "setting": "TNF-α", "result": "32.6 ± 10.1", "unit": "pg/g"}]}
{"smiles": "CC(=O)O[C@H]1C(=O)[C@@]2(C)[C@H]([C@H](OC(=O)c3ccccc3)[C@]3(O)C[C@H](OC(=O)[C@H](O)[C@@H](NC(=O)c4ccccc4)c4ccccc4)C(C)=C1C3(C)C)[C@]1(OC(C)=O)CO[C@@H]1C[C@@H]2O", "note": "[paclitaxel]", "values": [{"measurement": "IL-1 induced binding activity", "setting": "AP-1", "result": "decreased"}, {"measurement": "IL-1 induction of collagenase RNA levels", "setting": "collagenase", "result": "can be inhibited"}, {"measurement": "IL-1 induction of stromelysin RNA levels", "setting": "stromelysin", "result": "can be inhibited"}, {"measurement": "IL-1 induced AP-1 reporter gene CAT activity", "setting": "[5]", "result": "reduced IL-1 induced AP-1 reporter gene CAT activity"}, {"measurement": "IL-1 induced AP-1 binding activity", "setting": "[6]", "result": "decreased"}, {"measurement": "collagenase mRNA level", "setting": "collagenase (MMP-1) mRNA", "result": "complete inhibition"}, {"measurement": "stromelysin mRNA level", "setting": "stromelysin (MMP-3) mRNA", "result": "complete inhibition"}]}
{"smiles": "O=C(Nc1ccc([N+](=O)[O-])cc1Cl)c1cc(Cl)ccc1O", "note": "[Niclosamide, niclosamide]", "values": [{"measurement": "toxicity in mammals", "setting": "[7]", "result": "very low toxicity"}]}
{"smiles": "N=C(N)c1ccc(OCCCCCOc2ccc(C(=N)N)cc2)cc1", "note": "[pentamidine]", "values": [{"measurement": "inhibition of protein tyrosine phosphatase 1B (PTP1B)", "setting": "[8]", "result": "effective inhibitor"}, {"measurement": "inhibition of the oncogenic phosphatases of regenerating liver (PRL)", "setting": "[9]", "result": "potent inhibitor"}, {"measurement": "inhibition of the activity of endo-exonuclease", "setting": "endo-exonuclease", "result": "inhibit"}]}
{"smiles": "Fc1ccc([C@@H]2CCNC[C@H]2COc2ccc3c(c2)OCO3)cc1", "note": "[paroxetine]", "values": [{"measurement": "glucocorticoid receptor trafficking", "setting": "glucocorticoid receptor", "result": "does not promote"}, {"measurement": "potentiation of prednisolone's ability to transactivate a GRE reporter plasmid", "setting": "[2]", "result": "does not promote glucocorticoid receptor trafficking or potentiate"}, {"measurement": "NFAT activation, translocation and transactivation", "setting": "NFAT", "result": "represses"}, {"measurement": "AP1 activation", "setting": "AP1", "result": "inhibits"}, {"measurement": "p38 activation", "setting": "p38", "result": "inhibition"}, {"measurement": "JNK activation", "setting": "JNK", "result": "inhibition"}]}
{"smiles": "CC(=O)N1CCN(c2ccc(OCC3COC(Cn4ccnc4)(c4ccc(Cl)cc4Cl)O3)cc2)CC1", "note": "(centres unmarked) [ketoconazole]", "values": [{"measurement": "serum concentration", "setting": "[10]", "result": "about 3.2 micrograms"}, {"measurement": "solubility in water (in words)", "setting": "[11]", "result": "essentially insoluble"}]}
